Three compounds from patent US6900223B2, “Dihydrodipyrazolopyridinone inhibitors of B7-1” (Wyeth, priority 2002, dated 2005) can be followed below.

pIC50: −log10 of the molar value.

The target in the assay is T1, B7-1/CD28 binding (Homo sapiens, UniProt P33681).
T1 sequence (P33681 35-242 limits assumed): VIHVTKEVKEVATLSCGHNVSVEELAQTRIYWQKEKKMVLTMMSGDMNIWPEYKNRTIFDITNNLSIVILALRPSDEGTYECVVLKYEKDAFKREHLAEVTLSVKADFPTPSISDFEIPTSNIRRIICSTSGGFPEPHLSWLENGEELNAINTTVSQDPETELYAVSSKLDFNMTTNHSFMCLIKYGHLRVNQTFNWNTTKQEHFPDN
The experiment in a line: CD28/B7-1 ELISA (B7-1/CD28 binding inhibition). The note with it: CD28-Fc coated wells, B7-1-Fc-biotin/streptavidin-alkaline phosphatase detection complex, 1% DMSO. As to the method: Evaluation of B7-1/CD28 Binding Inhibition for Test Compounds
Wells are coated with 300 ng CD28-Fc in carbonate buffer (pH 9.4) overnight at 4° C., blocked with 1% bovine serum albumin in tris-buffered saline (TBS) for 1 h at 22° C. and washed 3 times in TBS prior to assay. The detection complex is formed as follows: B7-1-Fc-biotin, prepared using NHS-LC-biotin (Pierce #21335) according to the manufacturers instructions (4.1 moles biotin/mole Fc), is added at 0.8 ug/ml to streptavidin-alkaline phosphatase (Caltag Sa1008 at 1:1000 in TBS. Gradient dilutions of test compound in dimethylsulfoxide (1% final) are added to this complex and incubated 30 min. at 22° C. Detection complex (+/−inhibitors) is then added to the CD28 coated wells for 25 min. at 22° C., washed 5 times with TBS, developed with the calorimetric substrate pNPP (Pierce #34045) in diethanolamine/MgCl2 buffer (pH 9.5) and read at 405 nm. The inhibition constant (IC50) is calculated by subtracting background binding and comparing to uninhibited (DMSO alone) controls. The inhibition constant represents the concentration of test compound required to achieve 50% inhibition.
As for `COc1cccc(-c2nc3c(cnn3C)c3[nH]n(-c4cccc(F)c4)c(=O)c23)c1` [Example 75], the pIC50 (usually the IC50 on a negative log10 scale, so that one unit is a factor of ten) is 7.09.

Regarding `Cn1ncc2c3[nH]n(-c4cccc(F)c4)c(=O)c3c(-c3ccc4c(c3)OCO4)nc21` [Example 76], the pIC50 was 6.53.

`CC1CN(c2nc3c(cnn3C)c3[nH]n(-c4cccc(F)c4)c(=O)c23)CC(C)O1` (stereo not drawn) [Example 81, 4-(2,6-Dimethyl-4-morpholinyl)-2-(3-fluorophenyl)-6-methyl-1,6-dihydrodipyrazolo[3,4-b:3′-4′-d]pyridin-3(2H)-one] had a pIC50 of 6.73.
